The NIST ThermoML archive (doi:10.1016/j.fluid.2019.112248)
Where “and” joins values, the source holds several entries; their conditions need not be identical. Identical values can stand only once. ± gives the expanded uncertainty stated by the source.

Tests used:
[1] = for vapor or sublimation pressure: Liquid, Closed cell (Static) method; for Normal melting temperature: DTA
[2] = Molar enthalpy of transition or fusion; conditions: DSC
[3] = Boiling temperature at pressure P; conditions: 100 kPa; Glass; DTA
[4] = molar heat capacity at constant pressure; conditions: 101.33 kPa, Liquid, DSC

| SMILES | vapor or sublimation pressure ([1]; 273.7 K) | vapor or sublimation pressure ([1]; 278.19 K) | vapor or sublimation pressure ([1]; 283.19 K) | vapor or sublimation pressure ([1]; 288.19 K) | vapor or sublimation pressure ([1]; 293.2 K) | vapor or sublimation pressure ([1]; 298.2 K) | vapor or sublimation pressure ([1]; 303.2 K) | vapor or sublimation pressure ([1]; 308.21 K) | molar heat capacity at constant pressure ([4]; 265 K) [J/K/mol] | molar heat capacity at constant pressure ([4]; 270 K) [J/K/mol] | molar heat capacity at constant pressure ([4]; 275 K) [J/K/mol] | molar heat capacity at constant pressure ([4]; 280 K) [J/K/mol] | molar heat capacity at constant pressure ([4]; 285 K) [J/K/mol] | molar heat capacity at constant pressure ([4]; 290 K) [J/K/mol] | molar heat capacity at constant pressure ([4]; 295 K) [J/K/mol] | molar heat capacity at constant pressure ([4]; 300 K) [J/K/mol] | molar heat capacity at constant pressure ([4]; 305 K) [J/K/mol] | molar heat capacity at constant pressure ([4]; 310 K) [J/K/mol] | molar heat capacity at constant pressure ([4]; 315 K) [J/K/mol] | molar heat capacity at constant pressure ([4]; 320 K) [J/K/mol] | also measured |
| --- | --- | --- | --- | --- | --- | --- | --- | --- | --- | --- | --- | --- | --- | --- | --- | --- | --- | --- | --- | --- | --- |
| C=CCc1ccc(O)c(OC)c1 [2-hydroxy-5-allylanisole] | 0.000153 ± 0.00014 kPa and 0.000152 ± 0.00014 kPa | 0.000252 ± 0.00014 kPa and 0.000251 ± 0.00014 kPa | 0.000451 ± 0.00014 kPa and 0.000443 ± 0.00014 kPa and 0.000444 ± 0.00014 kPa | 0.000724 ± 0.00015 kPa and 0.000725 ± 0.00015 kPa and 0.000723 ± 0.00015 kPa | 0.001256 ± 0.00016 kPa and 0.001233 ± 0.00016 kPa and 0.001223 ± 0.00016 kPa | 0.00193 ± 0.00017 kPa and 0.001938 ± 0.00017 kPa and 0.001934 ± 0.00017 kPa | 0.00307 ± 0.0002 kPa and 0.003081 ± 0.0002 kPa and 0.003077 ± 0.0002 kPa | 0.004864 ± 0.00025 kPa and 0.004868 ± 0.00025 kPa | 311.2 ± 12 | 312.8 ± 12 | 314.5 ± 12 | 315.8 ± 12 | 317.4 ± 12 | 319.2 ± 12 | 321 ± 12 | 322.9 ± 12 | 324.8 ± 13 | 326.4 ± 13 | 328.2 ± 13 | 329.9 ± 13 | vapor or sublimation pressure ([1]; 308.2 K): 0.004871 ± 0.00025 kPa; Normal melting temperature ([1]; Crystal 1): -11.3 ± 0.5 °C; Normal melting temperature ([1]; Crystal 2): -28.5 ± 0.5 °C; Molar enthalpy of transition or fusion ([2]; Crystal 1): 4.06 ± 0.263 kcal/mol; Molar enthalpy of transition or fusion ([2]; Crystal 2): 2.01 ± 0.143 kcal/mol; Boiling temperature at pressure P [3]: -81.7 ± 0.3 °C; molar heat capacity at constant pressure ([4]; 325 K): 331.7 ± 13 J/K/mol; molar heat capacity at constant pressure ([4]; 330 K): 333.3 ± 13 J/K/mol; molar heat capacity at constant pressure ([4]; 335 K): 334.8 ± 13 J/K/mol; molar heat capacity at constant pressure ([4]; 340 K): 336.1 ± 13 J/K/mol; molar heat capacity at constant pressure ([4]; 345 K): 337.1 ± 13 J/K/mol; molar heat capacity at constant pressure ([4]; 350 K): 338.2 ± 13 J/K/mol; molar heat capacity at constant pressure ([4]; 355 K): 339.1 ± 13 J/K/mol |
| C=C(C)[C@H]1CC=C(C)C(=O)C1 [d-carvone] | 0.001141 ± 0.00015 kPa | 0.001788 ± 0.00016 kPa and 0.001789 ± 0.00016 kPa and 0.00179 ± 0.00016 kPa | 0.002902 ± 0.00019 kPa and 0.002899 ± 0.00019 kPa and 0.002893 ± 0.00019 kPa | 0.004581 ± 0.00024 kPa | 0.007151 ± 0.00032 kPa and 0.007137 ± 0.00032 kPa | 0.0109 ± 0.00045 kPa | 0.01637 ± 0.00058 kPa and 0.01638 ± 0.00058 kPa | 0.02413 ± 0.00072 kPa and 0.02415 ± 0.00072 kPa | 264.9 ± 10 | 266.7 ± 10 | 268.7 ± 10 | 270.6 ± 10 | 272.9 ± 11 | 275.2 ± 11 | 277.7 ± 11 | 280.3 ± 11 | 282.7 ± 11 | 284.9 ± 11 | 287.1 ± 11 | 289.5 ± 11 | vapor or sublimation pressure ([1]; 258.18 K): 0.000197 ± 0.00013 kPa and 0.000202 ± 0.00013 kPa and 0.000201 ± 0.00013 kPa; vapor or sublimation pressure ([1]; 263.19 K): 0.000371 ± 0.00014 kPa and 0.000373 ± 0.00014 kPa; vapor or sublimation pressure ([1]; 268.18 K): 0.000653 ± 0.00014 kPa and 0.000656 ± 0.00014 kPa; vapor or sublimation pressure ([1]; 268.19 K): 0.000653 ± 0.00014 kPa; vapor or sublimation pressure ([1]; 273.19 K): 0.001096 ± 0.00015 kPa and 0.001097 ± 0.00015 kPa; vapor or sublimation pressure ([1]; 273.69 K): 0.001133 ± 0.00015 kPa and 0.001138 ± 0.00015 kPa; vapor or sublimation pressure ([1]; 288.2 K): 0.004579 ± 0.00024 kPa and 0.004587 ± 0.00024 kPa; vapor or sublimation pressure ([1]; 298.21 K): 0.0109 ± 0.00045 kPa; Normal melting temperature ([1]; Crystal): -26.4 ± 0.5 °C; Molar enthalpy of transition or fusion ([2]; Crystal): 2.68 ± 0.0956 kcal/mol; molar heat capacity at constant pressure ([4]; 325 K): 292.1 ± 11 J/K/mol; molar heat capacity at constant pressure ([4]; 330 K): 294.3 ± 11 J/K/mol; molar heat capacity at constant pressure ([4]; 335 K): 296.5 ± 12 J/K/mol; molar heat capacity at constant pressure ([4]; 340 K): 298.2 ± 12 J/K/mol; molar heat capacity at constant pressure ([4]; 345 K): 299.7 ± 12 J/K/mol; molar heat capacity at constant pressure ([4]; 350 K): 301.1 ± 12 J/K/mol; molar heat capacity at constant pressure ([4]; 355 K): 302 ± 12 J/K/mol |
